Residues, ends and D or L forms follow the SMILES beside them. *: point of attachment. Boc = CC(C)(C)OC(=O)*; OBn = c1ccc(CO*)cc1
Row | SMILES | melting point [°C]
1 | O=C1CCCN1CCCN=c1sc2ccccc2s1 | 101 to 104
2 | Cn1c(C(F)(F)F)cc(=O)n(-c2ccc3snc(COCC(=O)NS(C)(=O)=O)c3c2)c1=O | > 240
3 | CC(C)(Cl)CC(N)C(=O)NC(C(=O)Nc1ccccc1)C(=O)c1ccccc1 (configuration not stated) | 145 to 147
4 | C(=N\c1c(-c2ccccc2)cc(-c2ccccc2)cc1-c1ccccc1)/c1ccccn1 | 141 to 144
5 | CC(C)N(CCCc1ccccc1)[C@H]1CC[C@H](c2ccc(O)cc2)CC1 | 146 to 154
6 | CC(C)C[C@H](CN)CC(=O)O | 192 to 196
7 | COC(=O)c1ccc(Cn2c(=O)c(C)c3sc(C(=O)NCc4ccc(F)cc4)cn3c2=O)cc1 | > 215
8 | O=c1[nH][nH]c(=O)c2c(O)c3cccc(Cl)c3nc12 | > 390
9 | N#Cc1c(N2CCCCC2)cc(-c2cccc3ccccc23)c2c1C(=O)c1ccccc1-2 | 202 to 204
10 | COc1ccc2nc(NC(=O)C(CC3CCCC3)c3ccc(S(=O)(=O)N4CCN(C(C)=O)CC4)cc3)sc2n1 (configuration not stated) | 215 to 217
11 | OCC#Cc1ccc(F)cc1 | 32 to 33
12 | COC(=O)CON1C(=O)c2ccccc2C1=O | 137 to 142
13 | CSC1=NC(c2cccc([N+](=O)[O-])c2)C2=C(COC2=O)N1 (configuration not stated) | 204 to 206
14 | CC(O)C(=O)Nc1ccc(C2=NNC(=O)CC2C)cc1 (configuration not stated) | 181 to 182
15 | CC(=O)c1cc2c(cc1Cl)C(C)(C)CC2(C)C | 69 to 71
16 | CC(C)(C(=O)O)S(=O)c1ccc2c(-c3ccc(Cl)cc3)noc2c1 (configuration not stated) | 184 to 185
17 | COCc1ccc(C(=O)NC(C#N)n2cccn2)cc1 (configuration not stated) | 155 to 157
18 | COC(=O)c1nc(N)sc1CCC(C)C | 108 to 110
19 | CCOc1c(C)c(N2CCN(c3ccc(C)cc3)CC2)c(C)c2c1OC(C)C2 (configuration not stated) | 96 to 98
20 | Cc1ccnn1-c1ccc(NC(=O)c2ccc(Cl)cc2)cc1 | 189 to 191
21 | CCOC(=O)c1cc2c(Cl)cccc2n1CC#N | 143 to 144
22 | CC(C)OP(=O)(/C=C/CCn1cnc2c(N)ncnc21)OC(C)C | 121 to 122
23 | Nc1ccc(-c2ncc(NC(=O)OCc3ccccc3)c(=O)n2CC(=O)NC(Cc2ccccc2)C(=O)C(F)(F)F)cc1 (configuration not stated) | 98 to 101
24 | CCN1CCCCC1c1ccccc1C=CC(=O)Nc1ccccc1 (configuration not stated) | 120 to 122

Row | SMILES | melting point [°C]
25 | C#CC1CCC2(CC1)SCC(C(C)(C)C)CS2 (configuration not stated) | 86 to 87
26 | CCCNC(=O)C1(CC=Cc2ccccc2)c2ccccc2CCc2ccccc21 | 159
27 | Cn1ncc(C(=O)N2CCOCC2)c1C(=O)Nc1cc2nc(-c3ccccc3)nn2cc1F | 224 to 225
28 | O=c1[nH]nc2c3c(cccc13)Oc1ccc(COP(=O)(OCc3ccccc3)OCc3ccccc3)cc1-2 | 223 to 225
29 | Cc1cc(N2CCC(CN3CCN(S(=O)(=O)c4ccc(Cl)cc4)CC3)CC2)nc(C)n1 | 73 to 74
30 | FC(F)(F)c1cc(Cl)c(-n2cccn2)c(Cl)c1 | 83 to 85
31 | O=C1CCCc2c1c1cccc(Cl)c1n2Cc1ccc(F)cc1 | 166
32 | O=c1[nH]c(N2CCOCC2)nc2c(N3CCCCCC3)nc(N3CCOCC3)cc12 | 240
33 | Cc1cc(C)cc(C(=O)c2c(C(C)C)c(=O)[nH]c(=O)n2COCc2ccccc2)c1 | 68 to 70
34 | CCOC(C)OC1CCC2(C)C3=C(CCC2C1(C)C)C1=CCC(C(C)CSc2ccccc2)C1(C)CC3 (configuration not stated) | 101 to 107
35 | CC1=Nc2ccccc2CC(c2cccnc2)N1C (configuration not stated) | 145 to 148
36 | O=C1c2ccccc2C(=O)N1[C@@H]1C[C@H](O)[C@@H](O)[C@H]1O (racemic) | 175 to 176
37 | O=CCOc1ccc(Cl)cc1 | 122 to 128
38 | CC1(C)CC(NC(=O)c2ccc(Cl)c([N+](=O)[O-])c2)CC(C)(C)N1 | 166 to 168
39 | O=Cc1c(O)ccc2ncccc12 | 136 to 137
40 | CCOC(=O)c1cc(NCc2ccccc2)c(Nc2ccc3ccccc3c2)c(S(N)(=O)=O)c1 | 199 to 201
41 | CC(C)C(NC(=O)OCc1ccccc1)P(O)O (configuration not stated) | 108 to 111
42 | C=CC(=O)C(CC1CCOCC1)c1ccc(S(=O)(=O)C2CC2)cc1 (configuration not stated) | 92 to 93
43 | CCNc1nc(SC)ncc1CO | 152 to 156
44 | CCC1(CC)c2cc(-c3ccc(N(c4ccccc4)c4ccccc4)cc3)ccc2-c2ccc(-c3nc4ccccc4s3)cc21 | 206 to 208
45 | C=CC(O)c1cc(O)ccc1[N+](=O)[O-] (configuration not stated) | 126 to 130
46 | Cc1cccc(-c2n[nH]cc2-c2ccc(F)c(-c3ccc(NC(=O)NN4CCOCC4)cc3)c2)n1 | 131 to 133
47 | Cn1c(-c2cccs2)nnc1S(C)=O (configuration not stated) | 105 to 107
48 | CN1CCN(C2=Nc3cc(Cl)cc4ccn(c34)-c3ccccc32)CC1 | 184 to 186

Row | SMILES | melting point [°C]
49 | C=C(C)Cc1cc(NC(C)=O)c(C)c(C)c1O | 149 to 151
50 | COC(=O)C(NC(=O)C=Cc1ccccc1)C(=O)C(C)C (configuration not stated) | 74 to 75
51 | N#Cc1cc(C(F)(F)F)cc(Cl)c1F | 150 to 152
52 | COc1cc2nc(N3CCC(=O)CC3)nc(N)c2cc1OC | 228 to 230
53 | CN1C(=O)C(NC(=O)Nc2ccccc2Cl)N=C(c2ccccc2)c2ccccc21 (configuration not stated) | 212 to 214
54 | CS(=O)(=O)Nn1c(=O)[nH]c2cc(C(F)(F)F)c(-n3cnc(C(F)(F)F)c3)cc2c1=O | 144 to 147
55 | CCN(C)C(=O)C(C)n1cc(C)c(-c2ccccc2)n1 (configuration not stated) | 59 to 61
56 | CCOC(=O)CC(=O)N(C)c1ccc(Cl)cc1[N+](=O)[O-] | 45 to 47
57 | CC(=O)CCC(CC=O)C(C)(C)OC(C)=O (configuration not stated) | 24
58 | O=C(Nc1ccc(-n2nc(C(F)(F)F)cc2C(F)(F)F)cc1)c1cccs1 | > 230
59 | O=C(Nc1ccc(Cl)cc1)c1cccc(Cl)c1 | 124 to 126
60 | CC(CN)C1=CC(C)(C(=O)O)CC=C1 (configuration not stated) | 236 to 238
61 | OC1c2ccc(F)cc2SC1Cn1ccnc1 (configuration not stated) | 165 to 166
62 | CON1C=C2N=NC3=C(N2C1)N(C1CCCCC1)CC(C)=C3 | 174 to 177
63 | CCC(CC)c1ccc(CN2CCCC2)c2nc(Oc3c(C)cc(Cl)cc3Cl)n(C)c12 | 107 to 108
64 | O=Cc1ccc2c(n1)COC(c1ccccc1)O2 (configuration not stated) | 110 to 114
65 | CC(C)(C)OC(=O)NCC(=O)NCC(=O)OCc1ccccc1 (Boc-Gly-Gly-OBn) | 83
66 | N#Cc1ccc(OCC(NNC(=O)Nc2ccc(OC(F)(F)F)cc2)c2ccccc2)cc1 (configuration not stated) | 176
67 | O=C(O)c1ccc(CCNc2c(C(=O)O)cc(Cl)cc2[N+](=O)[O-])cc1 | 255 to 257
68 | O=C(N[C@H](Cc1ccccc1)C(=O)O)OCc1ccc2[nH]c(-c3ccccc3)cc2c1 | 176 to 177
69 | COc1ccc(S(=O)(=O)c2cc3c(cc2C)OC(C(=O)O)O3)cc1NC(C)=O (configuration not stated) | 230
70 | Nc1sc2c(c1C(=O)c1ccc(Cl)cc1)CCC(Cc1ccccc1)C2 (configuration not stated) | 60 to 62
71 | Nc1nc(N)c(C(=O)NC(Cc2ccccc2)C(=O)NCCNCC(O)COc2cccc3ccccc23)nc1Cl (configuration not stated) | 142 to 146

The remaining lines, values ahead:

Row | melting point [°C] | SMILES
72 | 166 to 169 | COc1c(Cl)ccc(-c2cc(N)c(Cl)c(C(=O)NO)n2)c1F
73 | 118 to 119 | Cc1oc(-c2ccccc2)nc1COc1cccc(/C=C/CO)c1
74 | 87 to 90 | CCCCOc1ccc(C(=O)N2CCCCc3sccc32)cc1
75 | 195 to 197 | O=c1cc2c(nn1-c1ccc(Cl)cc1)-c1cc(CO)sc1CC2
76 | 275 | COc1cc2cc(C(N)=O)c(N)nc2cc1OC
77 | 119 to 121 | Cc1ccc(-c2nnc(N(CCCCOCC(=O)O)C(C)C)nc2-c2ccc(C)cc2)cc1
78 | 132 to 134 | COC(=O)c1ccc(NC(=O)c2ccccc2-c2ccccc2)cc1Cl
79 | 234 to 238 | O=C(O)c1cn(-c2ccc(F)cn2)c2nc(Cl)c(F)cc2c1=O
80 | 217 to 219 | O=C(NCCc1ccnc(-c2nc(=O)c3ccccc3s2)c1)c1ccccc1
81 | < 50 | FC(F)(F)Oc1ccc2nc(Cl)sc2c1
82 | 162 to 164 | COc1ccc2c(c1)c(Cc1nc(-c3cccc([N+](=O)[O-])c3)cs1)c(C)n2C(=O)c1ccc(Cl)cc1
83 | 193 to 194 | COc1ccc(-c2nc(-c3ccccc3)c(-c3ccncc3)n2C)cc1
84 | 94.5 to 95 | COC(=O)NNC(=S)Cc1ccc(OC)cc1
85 | 180 to 182 | O=C(NO)c1ccc(-c2ccc3nnn(Cc4ccc5ncccc5c4)c3n2)cc1F
86 | 174 to 176 | COc1ccc(-c2nc3cnccc3[nH]2)c(OCCCCl)c1
87 | 144 to 145 | CC(C)(C)c1cc(C(=O)CCCCOc2ccc(C(=O)C(=O)O)cc2)cc(C(C)(C)C)c1O

Row | melting point [°C] | SMILES
88 | 72.5 to 73.5 | COC(=O)C(CCn1c(Cl)ccc1C(=O)c1ccc(Cl)cc1)C(=O)OC
89 | 48 to 50 | CN(C)Cc1cccc(OCCCNC(=O)COC(=O)c2ccc(Cl)c(Cl)c2)c1
90 | 33 to 34.3 | CCCCCCCCc1ccc(-c2ncc(OCC(C)OC(=O)CCCCCC)cn2)cc1 (configuration not stated)
91 | 116 to 118 | COc1ccc2c(c1)OC(CCO)C(=O)N2Cc1cccc([N+](=O)[O-])c1 (configuration not stated)
92 | 146 to 147 | COCCOc1cccc2c1C(=O)c1ccccc1C2=O
93 | 92 to 94 | COc1ccc(/C(=C\C=O)c2ccccc2OC)cc1
94 | 161 to 162 | CCCOc1ccccc1-c1nc2c(C(=O)NCC)cccc2c(=O)[nH]1
95 | 72 to 73 | CC1(C)c2ccccc2Oc2ncccc21
96 | 212 to 214 | COc1ccc2c(=O)c(S(C)(=O)=O)cn(C)c2c1
97 | 51 to 52 | CN(CCCO)C(=O)c1cc2ccccc2c(-c2ccccc2I)n1
98 | 199 to 201 | CC(C)CN(CCCc1ccc(F)cc1)[C@H]1CC[C@H](c2ccc3[nH]c(=O)oc3c2)CC1
99 | 235 | Nn1ncc2c1-c1cc3ccccc3nc1CC2
100 | > 300 | COc1ccc(OC(N)=O)cc1
101 | 143 to 146 | COc1cc(OCc2ccccn2)ccc1/C=C/c1cc(/C=C/c2ccccc2)[nH]n1
102 | 55 to 57 | COC(=O)CCCc1cc2c(Cl)c(C#N)cnc2s1

— a melting point compilation (Tetko et al.; mined from patent text by program, amines drawn as free bases though some values may be those of a salt)
